Results on one compound are retold here after patent US20070066608A1, “Novel indole derivatives with an improved antipsychotic activity” (priority 2003, published 2007).

Assay [1] has as its target T1, Human Dopamine D3 receptor (Homo sapiens, UniProt P35462).
T1 construct: expressed in transfected cells; host or cells: CHO cells
Kind of assay: Radioligand binding experiment for dopamine D3 receptor (hD3), [125I]Iodosulpride. To be noted: membranes of D3 receptor-transfected CHO cells, read-out: pIC50 D3 (converted). How it is done: (§1) The interaction of the compounds of Formula (I) with dopamine-receptors, h5HT-transporter and h5HT1A receptor was assessed in in vitro radioligand binding experiments. In general, a low concentration of a radioligand with a high binding affinity for a particular receptor or transporter is incubated with a sample of a tissue preparation enriched in a particular receptor or transporter or with a preparation of cells expressing cloned human receptors in a buffered medium. During the incubation, the radioligand binds to the receptor or transporter. When equilibrium of binding is reached, the receptor bound radioactivity is separated from the non-bound radioactivity, and the receptor- or transporter-bound activity is counted The interaction of the test compounds with the receptor is assessed in competition binding experiments. Various concentrations of the test compound are added to the incubation mixture containing the receptor- or transporter preparation and the radioligand. The test compound in proportion to its binding affinity and its concentration inhibits binding of the radioligand.
Human Dopamine D3 receptor-transfected CHO cells were collected by scraping into ice-cold Tris-HCl buffer (50 mM, pH 7.4). The suspension was centrifuged (23 500×g, 10 min, 4° C.) and pellets stored at −70° C. until required. They were then thawed and briefly homogenised using an Ultra-Turrax T25 homogeniser prior to dilution to an appropriate protein concentration optimised for specific and non-specific binding. [^125]Iodosulpride (Amersham, specific activity 2000 Ci/mmol) was diluted in Tris-HCl assay buffer containing NaCl, CaCl2, MgCl2, KCl and BSA (50, 120, 2, 1, 5 mM, 0.1% respectively, adjusted to pH 7.7 with HCl) at a concentration of 2 nmol/L. Prepared radioligand (20 μl) was incubated (60 min, RT) and with 20 μl of either the 10% DMSO control, Risperidone (10^−6 mol/L final concentration), or compound of interest, then with membrane preparations (80 μl). Overnight incubation followed after addition of WGA-coated PVT SPA beads (250 μl; Amersham) and membrane-bound counts measured in a Wallac Microbeta. % Specific bound and competition binding curves were calculated using S-Plus software (Insightful).

For assay [2], the target named is T2, Human Dopamine D4 receptor (Homo sapiens, UniProt P21917).
T2 construct: expressed in transfected cells; host or cells: Sf9 cells
T2 sequence (P21917 1-419): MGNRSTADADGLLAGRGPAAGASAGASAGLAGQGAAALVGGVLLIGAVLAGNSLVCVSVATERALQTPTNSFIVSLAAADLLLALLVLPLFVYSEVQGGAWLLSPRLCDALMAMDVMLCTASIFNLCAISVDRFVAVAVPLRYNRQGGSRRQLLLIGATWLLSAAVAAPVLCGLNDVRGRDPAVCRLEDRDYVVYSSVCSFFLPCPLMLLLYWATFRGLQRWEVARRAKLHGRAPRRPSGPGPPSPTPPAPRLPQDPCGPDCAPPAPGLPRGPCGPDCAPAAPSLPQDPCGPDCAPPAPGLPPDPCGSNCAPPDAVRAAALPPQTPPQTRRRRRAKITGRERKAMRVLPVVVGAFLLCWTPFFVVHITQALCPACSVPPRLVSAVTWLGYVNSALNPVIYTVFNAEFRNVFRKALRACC
Kind of assay: Radioligand binding experiment for dopamine D4 receptor (hD4), [125I]Spiperone. As to conditions: membranes of D4 receptor-transfected Sf9 cells, read-out: pIC50 D4 (converted). Here is the method: as §1, with “The test compound in proportion to its binding affinity and its concentration inhibits binding of the radioligand.” left out
Human Dopamine D4 receptor-transfected Sf9 cells were collected by scraping into ice-cold Tris-HCl buffer (50 mM, pH 7.4). […] Filters were allowed to dry before adding scintillation fluid and counting in a Topcount scintillation counter. % Specific bound and competition binding curves were calculated using S-Plus software (Insightful).

The target in a further assay is T3, Human 5HT1A receptor (Homo sapiens, UniProt P08908).
T3 construct: expressed in transfected cells; host or cells: L929 cells (stably transfected)
T3 sequence (P08908 1-422): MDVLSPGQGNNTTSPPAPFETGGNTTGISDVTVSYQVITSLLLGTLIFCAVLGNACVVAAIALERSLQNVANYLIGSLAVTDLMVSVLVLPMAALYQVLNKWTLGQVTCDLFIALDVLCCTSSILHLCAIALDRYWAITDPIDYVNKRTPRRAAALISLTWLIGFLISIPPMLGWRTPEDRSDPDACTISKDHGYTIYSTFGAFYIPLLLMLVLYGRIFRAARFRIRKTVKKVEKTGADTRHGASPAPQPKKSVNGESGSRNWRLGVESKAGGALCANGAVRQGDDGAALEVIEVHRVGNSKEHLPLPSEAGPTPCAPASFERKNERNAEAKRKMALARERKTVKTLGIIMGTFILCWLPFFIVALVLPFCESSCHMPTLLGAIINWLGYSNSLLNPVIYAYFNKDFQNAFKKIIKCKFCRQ
Kind of assay: Binding experiment for 5-HT1A receptor, [3H]8OHDPAT. As to conditions: membranes of 5HT1A receptor-transfected L929 cells, read-out: pIC50 5HT1A (converted). How it is done: as §1
Human 5HT1A receptor-transfected L929 cells were collected by scraping into ice-cold Tris-HCl buffer (50 mM, pH 7.4). The suspension was centrifuged (23 500×g, 10 min, 4° C.) and pellets stored at −70° C. until required. They were then thawed and briefly homogenised using an Ultra-Turrax T25 homogeniser prior to dilution to an appropriate protein concentration optimised for specific and non-specific binding. [^3H]8OHDPAT (NEN, specific activity 127 Ci/mmol) was diluted in Tris-HCl assay buffer containing CaCl2 (50 mM and 4 mM, respectively; pH 7.7) at a concentration of 5 nmol/L. Prepared radioligand (50 μl) was then incubated (30 min, 37° C.) with membrane preparations from L929 cells stably-transfected with the h5HT1A gene construct (400 μl) and with 50 μl of either the 10% DMSO control, spiroxatrine (10^−6 mol/L final concentration), or compound of interest. Membrane-bound activity was detected by filtration through a Packard Filtermate harvester onto Unifaltemplates, washing with ice-cold Tris-HCI buffer (3×4 ml), followed by drying. Scintillation fluid was added and membranes were counted in a Topcount scintillation counter. % Specific bound and competition binding curves were calculated using S-Plus software (Insightful).

Molecules are shown by their SMILES.

T1 sequence (P35462 whole entry): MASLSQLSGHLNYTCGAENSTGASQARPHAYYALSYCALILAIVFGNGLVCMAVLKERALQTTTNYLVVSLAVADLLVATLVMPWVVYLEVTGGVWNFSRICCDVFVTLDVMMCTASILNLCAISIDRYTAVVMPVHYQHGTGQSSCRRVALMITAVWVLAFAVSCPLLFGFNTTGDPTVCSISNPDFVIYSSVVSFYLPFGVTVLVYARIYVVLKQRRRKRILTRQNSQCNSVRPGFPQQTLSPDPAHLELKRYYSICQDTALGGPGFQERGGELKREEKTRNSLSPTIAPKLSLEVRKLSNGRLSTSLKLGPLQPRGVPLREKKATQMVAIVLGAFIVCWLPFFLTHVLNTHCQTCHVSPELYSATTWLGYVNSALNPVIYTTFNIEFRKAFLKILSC

On to `Fc1ccc2[nH]cc(C3=CCN(CC4Oc5cccnc5O4)CC3)c2c1` (stereo not drawn) [Compound 7], for which the IC50 is 15.8 nM in assay [1], 501 nM in assay [2] and 398 nM at Human 5HT1A receptor.
